In patent US7022697B2, “4-(Oxadiazol-3-yl)-1,4-diazabicyclo[3.2.2]-nonane derivatives, preparation and therapeutic use thereof” (Sanofi-aventis, priority 2001, dated 2006):
Where a name gives a salt, the structure may show the parent alone.

Row | SMILES | melting point [°C]
1 | c1cc(-c2nc(N3CCN4CCC3CC4)no2)ccn1 (as salt: HBr) | 269 to 272
2 | C1CNC(c2nc(N3CCN4CCC3CC4)no2)CN1 (stereo not drawn) (as salt: HBr) | 247 to 248
3 | c1ccc2c(-c3nc(N4CCN5CCC4CC5)no3)cccc2c1 (as salt: HBr) | 256 to 258
4 | c1coc(-c2nc(N3CCN4CCC3CC4)no2)c1 (as salt: HBr) | 249 to 251
5 | c1ccc2sc(-c3nc(N4CCN5CCC4CC5)no3)cc2c1 (as salt: HBr) | 258 to 260
6 | c1cncc(-c2nc(N3CCN4CCC3CC4)no2)c1 (as salt: HBr) | 260 to 264
